Source: US5876715A, “Antibodies that bind novel carbohydrate ligands (myelorollins) that cause E-selectin dependent cell rolling, and uses thereof” (The Biomembrane Institute, priority 1996, dated 1999)
Entries after “also recorded” stand apart in the source; their conditions may differ.

Key:
[1] = target: T1, E-selectin-Ig fusion protein (Homo sapiens, UniProt P16581); experiment: Direct binding of ganglioside-coated latex beads to E-selectin-Ig coated fluorescent beads by flow cytometry; details: ganglioside-coated latex beads mixed with E-selectin-Ig fluorescent beads
T1 construct: Fc is only a tag
T1 sequence (P16581 22-610): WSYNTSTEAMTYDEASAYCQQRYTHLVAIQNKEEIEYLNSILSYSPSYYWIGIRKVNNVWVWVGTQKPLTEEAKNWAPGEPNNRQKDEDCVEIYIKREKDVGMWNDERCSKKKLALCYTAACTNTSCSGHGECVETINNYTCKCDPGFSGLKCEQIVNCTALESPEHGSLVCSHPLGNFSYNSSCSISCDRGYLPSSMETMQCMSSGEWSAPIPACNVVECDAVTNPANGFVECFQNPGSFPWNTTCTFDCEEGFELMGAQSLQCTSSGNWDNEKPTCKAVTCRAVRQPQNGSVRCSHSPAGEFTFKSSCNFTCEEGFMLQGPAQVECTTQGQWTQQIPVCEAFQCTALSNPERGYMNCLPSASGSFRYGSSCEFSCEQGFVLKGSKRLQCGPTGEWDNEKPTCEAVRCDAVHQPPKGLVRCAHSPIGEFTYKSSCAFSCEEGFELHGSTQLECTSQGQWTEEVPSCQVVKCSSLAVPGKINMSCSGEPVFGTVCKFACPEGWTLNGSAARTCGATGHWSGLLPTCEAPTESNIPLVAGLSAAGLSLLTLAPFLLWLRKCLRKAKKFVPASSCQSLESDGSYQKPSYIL
Procedure: 5×10^6 polystyrene latex beads (diameter […]) (IDC Spheres™; IDC, Portland, Oreg.) were washed with ethanol by centrifugation. 1 μg of GSL in 50 μL of ethanol was added to the washed beads and the mixture was evaporated under nitrogen stream. The beads were resuspended in 1% BSA in PBS(+) and washed twice by centrifugation. Washed beads were blocked with 3% BSA in PBS(+) at room temperature for 2 hr. After centrifugation, beads were resuspended in 1% BSA in PBS(+) with 0.1% azide and stored at 4° C. Yellow-green fluorescent sulfated latex beads (diameter 1 μm) (Molecular Probes, Inc., Portland, Oreg.) were coated with goat anti-human IgG (Fc-fragment specific) antibody (Jackson Immunoresearch Lab, West Grove, Pa.) according to manufacturer's protocol. After washing 3× with PBS, beads were blocked with 3% BSA in PBS at 4° C. for 2 hr. Blocked beads (about 5×10^8) were mixed with 1.5 mL of E- or P-selectin-Ig fusion protein containing culture supernatant (about 1 μg/mL fusion protein) from CHO transfectants (Handa et al., 1995 Int. J. Oncol. 6:773-781) with a blood mixer at 4° C. for 6-18 hr. This mixing procedure was repeated 3 times more using new culture supernatant containing the fusion protein. After washing with PBS, beads were incubated in 1 mL PBS containing 50 μg human IgG (Jackson Immunoresearch). For preparation of control beads, human IgG was used at 1 μg/mL, instead of fusion protein. The ganglioside-coated beads were mixed with the fluorescent beads at room temperature for various durations. The resulting suspension was subjected to flow cytometric analysis. Conditions of each assay are detailed below.
Adhesion under conditions of E- or P-selectin-binding to various gangliosides was assessed by a novel, sensitive method using E- or P-selectin-coated fluorescent beads (FIGS. 2 and 3). Adhesion was determined by aggregation of polystyrene beads coated with myelorollin, and selectin-coated fluorescent beads. Gangliosides were coated on non-fluorescent polystyrene beads and mixed with fluorescent beads coated with E- or P-selectin in the presence or absence of EDTA. Since aggregation occurs under brief, strong agitation, the process is neither "static" nor "dynamic" adhesion, in which myelorollin is presented as immovable solid phase. In this system, solid phases containing both myelorollin and selectin are in dynamic condition. Binding was determined by cytofluorometry. Ganglioside fractions used in this experiment were the same as described in Table 1. In addition: Sdiy^2, sialosyl Le^x -Le^x (VI^3 NeuAcV^3 FucIII^3 FucnLc6 Cer); SLe^x (IV^3 NeuAcIII^3 FucnLc4 Cer). These designated structures are based on ^1 H NMR, mass spectrometry. Binding index was defined as mean fluorescence intensity (MFI) of ganglioside fraction divided by MFI of sialylparagloboside (IV^3 NeuAcnLc4 Cer).
Referring to FIG. 2: open columns, E-selectin-IgG beads. Lighter shaded columns, E-selectin-IgG beads in the presence of 5 mM EDTA. Darker shaded columns, P-selectin-IgG beads. Solid columns, human IgG control beads. The binding of myelorollin to E-selectin beads was completely abolished in the presence of EDTA; myelorollin was unable to bind to P-selectin.
Binding index was defined as MFI of sample divided by MFI of sialylparagloboside as in FIG. 2. Open columns, E-selectin-IgG beads preincubated with control mouse IgG. Solid columns, E-selectin-IgG beads preincubated with mAb E1C. […]

[2] = test system: CHO cells permanently expressing E-selectin; details: TLC overlay, Stroud et al. 1995, 1996; cited from earlier work

| Substance | binding to E-selectin beads (binding index, MFI relative to sialylparagloboside) ([1]; listed as Str. 3) | binding to E-selectin beads (binding index, MFI relative to sialylparagloboside) [1] | binding to E-selectin beads (binding index, MFI relative to sialylparagloboside) ([1]; listed as Str. 1) | E-selectin binding/adhesion under static conditions in previous studies [2] |
| --- | --- | --- | --- | --- |
| VI^3 NeuAcV^3 FucIII^3 FucnLc6 Cer [SLe^x -Le^x, reference compound] | did show binding; also recorded: bound to E-selectin |  |  |  |
| VI^3 NeuAcnLc6 Cer [Fr. 7] |  | no binding to E-selectin | no binding whatsoever |  |
| X^3 NeuAcVII^3 FucV^3 FucnLc10 Cer [Fr. 13-1] |  | clear binding; also recorded: bind strongly to E-selectin |  | capable of binding E-selectin under static conditions |
| X^3 NeuAcVII^3 FucnLc10 Cer [Fr. 12-2] |  | weak adhesion |  |  |
